Test results: US20190231707A1, “TRANSDERMAL DRUG DELIVERY DEVICE FOR DELIVERING OPIOIDS” (CHRONO THERAPEUTICS INC., priority 2016, published 2019)

Experiment: Average cumulative delivery / flux across cadaver skin
Type: in vitro ADME
Settings: FIG. 15
Source text: The prodrug of Naltrexone with the PEG conjugation increased the molecular weight of the compound to be about 690 g/mole. […] The average flux for the Naltrexone was about 15.37 micrograms (μg) per hour per cm^2.

Compound: O=C1CC[C@@]2(O)[C@H]3Cc4ccc(O)c5c4[C@@]2(CCN3CC2CC2)[C@H]1O5 [Naltrexone]
- average flux across the cadaver skin: about 15.37 micrograms (μg) per hour per cm^2
